For assay [1], the target named is ACE (recombinant human form) (Homo sapiens, UniProt P12821). The assay can be described thus: In vitro inhibitory effect on angiotensin converting enzyme (ACE), quenched-fluorescence substrate. The format is biochemical. The settings on record: inhibitor incubated with enzyme 45 minutes; substrate Mca-Arg-Pro-Pro-Gly-Phe-Ser-Pro-DpaCOOH 5 μM. As for the experimental part:
(§1) In vitro inhibitory effect on angiotensin converting enzyme (ACE) and endothelin converting enzyme (ECE)
(§2) In order to compare their specificity, the compounds of the Examples were tested on 2 enzymes: ACE (recombinant human form) and ECE (recombinant human form of the isoform ECE-1c).
(§3) The tests were carried out in duplicate in 96-well plates. The inhibitor was incubated together with the enzyme for 45 minutes before the addition of a quenched-fluorescence substrate. The fluorescence emitted was detected and measured in a Fluoroscan Ascent plate reader (Thermo-Labsystems).
(§4) The fluorogenic substrates used are: Mca-Arg-Pro-Pro-Gly-Phe-Ser-Pro-DpaCOOH (5 μM) with ACE, and Mca-Arg-Pro-Pro-Gly-Phe-Ser-Ala-Phc-Lys(Dnp)COOH (5 μM; R&D Systems) with ECE.

Assay [2] deals with T1, ECE (recombinant human form of the isoform ECE-1c) (Homo sapiens, UniProt P42892).
T1 sequence (P42892 1-754 isoform P42892-3): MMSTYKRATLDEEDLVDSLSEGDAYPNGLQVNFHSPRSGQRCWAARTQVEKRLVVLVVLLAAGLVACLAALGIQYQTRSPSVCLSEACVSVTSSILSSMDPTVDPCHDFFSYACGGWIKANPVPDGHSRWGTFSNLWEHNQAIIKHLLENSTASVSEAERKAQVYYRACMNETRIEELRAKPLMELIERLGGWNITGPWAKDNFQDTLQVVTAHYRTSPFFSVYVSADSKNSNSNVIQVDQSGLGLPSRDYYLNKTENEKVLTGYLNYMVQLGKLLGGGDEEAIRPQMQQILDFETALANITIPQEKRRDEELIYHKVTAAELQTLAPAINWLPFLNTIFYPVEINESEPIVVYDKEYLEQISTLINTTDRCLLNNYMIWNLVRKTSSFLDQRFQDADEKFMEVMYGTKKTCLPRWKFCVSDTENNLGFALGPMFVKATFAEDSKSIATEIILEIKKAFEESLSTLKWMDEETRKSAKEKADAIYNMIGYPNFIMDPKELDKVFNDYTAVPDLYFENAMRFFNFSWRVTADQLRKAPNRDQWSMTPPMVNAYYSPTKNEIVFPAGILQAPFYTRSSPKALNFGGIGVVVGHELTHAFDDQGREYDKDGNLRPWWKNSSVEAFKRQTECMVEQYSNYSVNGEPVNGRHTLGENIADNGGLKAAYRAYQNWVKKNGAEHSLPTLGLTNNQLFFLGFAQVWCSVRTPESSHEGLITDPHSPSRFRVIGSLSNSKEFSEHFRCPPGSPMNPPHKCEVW
Kind of assay: In vitro inhibitory effect on endothelin converting enzyme (ECE), quenched-fluorescence substrate. The format is biochemical. The settings on record: inhibitor incubated with enzyme 45 minutes; substrate Mca-Arg-Pro-Pro-Gly-Phe-Ser-Ala-Phc-Lys(Dnp)COOH 5 μM. On the procedure:
as §1, §2, §3, §4

Drawing on patent publication US7521469B2, “Phosphinic amino acid compounds” (Les Laboratoires Servier, priority 2005, dated 2009), this text covers IC50 for three compounds.

ACE (recombinant human form), sequence (P12821 30-1306): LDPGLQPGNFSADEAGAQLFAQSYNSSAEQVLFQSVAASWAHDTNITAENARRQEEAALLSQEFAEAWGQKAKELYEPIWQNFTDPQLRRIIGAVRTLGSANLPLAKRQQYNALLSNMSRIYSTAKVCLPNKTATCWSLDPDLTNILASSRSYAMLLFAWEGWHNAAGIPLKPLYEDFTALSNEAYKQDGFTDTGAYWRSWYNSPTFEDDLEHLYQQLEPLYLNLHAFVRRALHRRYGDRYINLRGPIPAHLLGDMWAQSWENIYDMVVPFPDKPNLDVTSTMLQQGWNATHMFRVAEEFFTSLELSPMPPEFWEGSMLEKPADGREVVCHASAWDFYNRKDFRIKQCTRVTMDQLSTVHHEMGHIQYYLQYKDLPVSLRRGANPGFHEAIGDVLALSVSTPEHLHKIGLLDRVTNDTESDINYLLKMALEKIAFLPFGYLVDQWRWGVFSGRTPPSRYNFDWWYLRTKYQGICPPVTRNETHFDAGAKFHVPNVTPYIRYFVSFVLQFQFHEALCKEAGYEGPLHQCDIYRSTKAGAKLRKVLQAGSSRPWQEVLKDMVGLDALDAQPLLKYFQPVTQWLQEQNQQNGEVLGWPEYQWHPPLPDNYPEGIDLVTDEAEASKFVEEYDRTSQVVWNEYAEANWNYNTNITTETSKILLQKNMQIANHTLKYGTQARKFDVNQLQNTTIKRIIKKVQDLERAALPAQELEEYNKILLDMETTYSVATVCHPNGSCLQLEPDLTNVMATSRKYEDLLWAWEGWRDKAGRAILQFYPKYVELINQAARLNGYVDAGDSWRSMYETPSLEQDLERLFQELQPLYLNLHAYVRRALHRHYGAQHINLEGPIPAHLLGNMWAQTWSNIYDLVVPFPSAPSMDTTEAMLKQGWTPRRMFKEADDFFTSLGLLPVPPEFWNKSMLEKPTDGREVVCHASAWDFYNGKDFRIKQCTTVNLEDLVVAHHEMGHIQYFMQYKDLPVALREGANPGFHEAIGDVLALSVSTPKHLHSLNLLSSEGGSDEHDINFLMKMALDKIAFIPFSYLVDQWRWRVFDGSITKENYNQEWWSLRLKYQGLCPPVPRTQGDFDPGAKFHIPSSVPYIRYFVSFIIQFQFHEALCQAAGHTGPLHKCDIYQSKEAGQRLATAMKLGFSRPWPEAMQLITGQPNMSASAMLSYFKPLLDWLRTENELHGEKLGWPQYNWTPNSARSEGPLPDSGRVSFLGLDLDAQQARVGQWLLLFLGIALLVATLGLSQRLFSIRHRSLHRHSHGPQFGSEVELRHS

As a reminder, the IC50 is the point on the concentration scale where inhibition reaches its midpoint. For `O=C(N[C@@H](Cc1ccccc1)P(=O)(O)C[C@H](Cc1cc(-c2ccccc2)no1)C(=O)N[C@@H](Cc1c[nH]c2ccccc12)C(=O)O)OCc1ccccc1` [Example 1, (5R,8R,11S)-5-Benzyl-6-hydroxy-11-(1H-indol-3-ylmethyl)-3,9-dioxo-1-phenyl-8-[(3-phenyl-5-isoxazolyl)methyl]-2-oxa-4,10-diaza-6-phosphadodecan-12-oic acid 6-oxide], the IC50 in assay [1] stood at 36 nM; in assay [2] it was 8 nM.
With `O=C(N[C@@H](Cc1ccccc1)P(=O)(O)C[C@H](Cc1cc(-c2ccccc2)no1)C(=O)N[C@@H](Cc1ccccc1)C(=O)O)OCc1ccccc1` [Example 2, (5R,8R,11S)-5,11-Dibenzyl-6-hydroxy-3,9-dioxo-1-phenyl-8-[(3-phenyl-5-isoxazolyl)methyl]-2-oxa-4,10-diaza-6-phosphadodecan-12-oic acid 6-oxide], the values for the half-maximal inhibitory concentration (IC50) in assay [1] and in assay [2] were 3.8 nM and 7.7 nM, respectively.
Regarding `O=C(N[C@@H](Cc1ccccc1)P(=O)(O)C[C@H](Cc1cc(-c2ccccc2)no1)C(=O)N[C@@H](Cc1ccc(O)cc1)C(=O)O)OCc1ccccc1` [Example 3, (5R,8R,11S)-5-Benzyl-6-hydroxy-11-(4-hydroxybenzyl)-3,9-dioxo-1-phenyl-8-[(3-phenyl-5-isoxazolyl)methyl]-2-oxa-4,10-diaza-6-phosphadodecan-12-oic acid 6-oxide], the IC50 in assay [1] and in assay [2] was 1.4 nM in each case.
